Assay results reported in patent publication US20250134874A1, “PHARMACEUTICAL FORMULATIONS COMPRISING 3-({[(4R)-7-{METHYL[4-(PROPAN-2-YL)PHENYL]AMINO}-3,4-DIHYDRO-2H-1-BENZOPYRAN-4-YL]METHYL}AMINO)PYRIDINE-4-CARBOXYLIC ACID” (TACHYON THERAPEUTICS, INC., priority 2021, published 2025).

Test system: 301 cancer cell lines from different tumor types (OncoPanel; HD Biosciences)
Assay: 2D cell viability inhibition assay (CellTiter-Glo) in cancer cell line panel
Type: cell-based
Parameters: key to AUC: AUC as fraction of the no-inhibition area (dose range × 0–100 % of control)
Details: for Emax: in %
Protocol: In a larger screening study, compound 1 was evaluated across a broad cancer cell line panel (OncoPanel; HD Biosciences) composed of 301 cancer cell lines from different tumor types.
2D cell viability inhibition assays were performed in multiwell plates seeded with cells from the panel. After seeding, the plates were cultured overnight in a humidified incubator at 37° C. to promote adherence. Assays were initiated in individual wells by adding either DMSO as a vehicle control, growth media as a blank, or serially diluted compound 1 (10 μM to 0.0005 μM with 1:3 serial dilution). Cultures were incubated for 168 hours after which the number of viable cells in each test well was assessed using the CellTiter-Glo® Luminescent Cell Viability Assay. Luminescence readouts were performed using an EnVision® Multilabel Reader and the compound 1 readouts were normalized to the DMSO control readouts, expressed as a percent of the control. Outliers were flagged out by visual inspection. Percent of control was plotted against the corresponding compound 1 concentration and the absolute IC50 value was determined using four-parameter logistic non-linear regression as the concentration where inhibition was 50% of the control. For maximum inhibition <50%, the absolute IC50 was reported as >10. In addition to EC50 and IC50, AUC was determined and was normalized to the area corresponding to theoretical no-inhibition (the rectangular area defined by the compound dose range and 0 to 100 in y). Emax was recorded as the minimum in y with the compound dose range. For those cell lines where Emax>40, EC50 was manually set to 10 μM. A hierarchical clustering algorithm based on Euclidean distance between the standardized input values and “Ward.D” method as implemented in R hclust function was used to visualize the compound 1 cellular potency data. The sensitive/moderate/resistant calls for each cell line was determined by visually inspecting the resulting clustering dendrogram. All the analyses were done in R Core Team.

[1] = Homo sapiens, TE-5, TE5 cell line
[2] = Homo sapiens, TE-6, TE6 cell line
[3] = Homo sapiens, TE-9, TE9 cell line
[4] = Homo sapiens, TE-10, TE10 cell line
[5] = Homo sapiens, TE-11, TE11 cell line
[6] = Homo sapiens, TF-1, TF1 cell line
[7] = Homo sapiens, THP-1, THP1 cell line
[8] = Homo sapiens, TOV112D, TOV112D cell line
[9] = Homo sapiens, TT, T.T cell line
[10] = Homo sapiens, U2OS, U2OS cell line
[11] = Homo sapiens, U-87 MG, U87MG cell line
[12] = Homo sapiens, U-937, U937 cell line
[13] = Homo sapiens, UMUC3, UMUC3 cell line
[14] = Homo sapiens, WM 266-4, WM2664 cell line
[15] = Homo sapiens, WM-115, WM115 cell line
[16] = Homo sapiens, WSUDLCL2, WSUDLCL2 cell line

SMILES: CC(C)c1ccc(N(C)c2ccc3c(c2)OCC[C@H]3CNc2cnccc2C(=O)O)cc1 [Compound 1, 3-({[(4R)-7-{methyl[4-(propan-2-yl)phenyl]amino}-3,4-dihydro-2H-1-benzopyran-4-yl]methyl}amino)pyridine-4-carboxylic acid]
- IC50 (Homo sapiens, TALL-1, TALL1 cell line): 1.8 nM
- EC50 [1]: 6.64 nM
- IC50 [1]: 8.47 nM
- EC50 [2]: 4.83 nM
- IC50 [2]: 6.68 nM
- EC50 [3]: 3.75 nM
- IC50 [3]: 6.89 nM
- EC50 [4]: 9.3 nM
- IC50 [4]: 16.3 nM
- EC50 [5]: 3.85 nM
- IC50 [5]: 4.28 nM
- IC50 (Homo sapiens, TE-15, 168 h, TE15, oesophagus, squamous cell carcinoma, 168 hours): > 10000 nM
- EC50 [6]: 1.58 nM
- IC50 [6]: 2.59 nM
- EC50 [7]: 4.92 nM
- IC50 [7]: 6.15 nM
- EC50 [8]: 4.26 nM
- IC50 [8]: 6.23 nM
- EC50 [9]: 4.37 nM
- IC50 [9]: 6.75 nM
- EC50 [10]: 7.71 nM
- IC50 [10]: 9.01 nM
- EC50 [11]: ≥ 10000 nM
- IC50 [11]: 14.7 nM
- EC50 [12]: 2.73 nM
- IC50 [12]: 2.55 nM
- IC50 (Homo sapiens, UACC-812, 168 h, UACC812, breast, ductal carcinoma, 168 hours): > 10000 nM
- EC50 [13]: 21.9 nM
- IC50 [13]: 39.5 nM
- IC50 (Homo sapiens, VCaP, 168 h, prostate, adenocarcinoma): > 10000 nM
- EC50 [14]: ≥ 10000 nM
- IC50 [14]: 27.5 nM
- EC50 [15]: 2.5 nM
- IC50 [15]: 478 nM
- EC50 [16]: 4.21 nM
- IC50 [16]: 5.67 nM
- AUC (J82 cell line): 0.6749
- AUC (JEKO1 cell line): 0.1172
- AUC (JIMT1 cell line): 0.5519
- AUC (JURKAT cell line): 0.1171
- Emax (JURKAT cell line): 0.212
- AUC (K562 cell line): 0.275
- AUC (KALS1 cell line): 0.6559
- AUC (KARPAS422 cell line): 0.329
- Emax (KARPAS422 cell line): 8.084
- AUC (KASUMI1, haematopoietic and lymphoid tissue, acute myeloid leukaemia, 168 hours): 0.8823
- AUC (KATOIII cell line): 0.49
- AUC (KG1, haematopoietic and lymphoid tissue, acute myeloid leukaemia, 168 hours): 0.9592
- AUC (KM12 cell line): 0.3482
- Emax (KM12 cell line): 12.24
- AUC (KMS11 cell line): 0.3918
- Emax (KMS11 cell line): 9.983
- AUC (KNS62 cell line): 0.4761
- Emax (KNS62 cell line): 18.84
- AUC (KNS81 cell line): 0.6309
- IC50 (KNS81 cell line): > 10000 nM
- AUC (KU1919 cell line): 0.3956
- Emax (KU1919 cell line): 14.57
- AUC (KURAMOCHI, ovary, undifferentiated carcinoma, 168 hours): 0.8742
- AUC (KYSE30 cell line): 0.4434
- Emax (KYSE30 cell line): 38.59
- AUC (KYSE70, oesophagus, squamous cell carcinoma, 168 hours): 0.6942
- AUC (KYSE150 cell line): 0.3052
- AUC (KYSE270 cell line): 0.3062
- AUC (KYSE410 cell line): 0.4156
- Emax (KYSE410 cell line): 21.4639
- AUC (KYSE510 cell line): 0.1998
- AUC (LNCAP cell line): 0.3974
- AUC (LOUCY cell line): 0.188
- EC50 (LOUCY cell line): 2.47 nM
- IC50 (LOUCY cell line): 2.47 nM
- AUC (LOVO cell line): 0.6362
- AUC (LS411N cell line): 0.3851
- Emax (LS411N cell line): 6.415
- AUC (LU65 cell line): 0.4091
- Emax (LU65 cell line): 12
- AUC (LU99, lung, large cell carcinoma, 168 hours): 0.79
- AUC (LUDLU1 cell line): 0.5307
- EC50 (LUDLU-1, LUDLU1 cell line): 12.6 nM
- IC50 (LUDLU-1, LUDLU1 cell line): 25.8 nM
- AUC (MALME3M, skin, NS, 168 hours): 0.9867
- AUC (MC116 cell line): 0.2527
- AUC (MCF7 cell line): 0.6592
- AUC (MDAMB157, breast, ductal carcinoma, 168 hours): 0.8362
- AUC (MDAMB175VII, breast, ductal carcinoma, 168 hours): 0.7385
- AUC (MDAMB231, breast, NS, 168 hours): 0.7262
- AUC (MDAMB361, breast, NS, 168 hours): 1.117
- AUC (MDAMB415, breast, NS, 168 hours): 0.9413
- AUC (MDAMB436, breast, NS, 168 hours): 0.8438
- AUC (MDAMB453 cell line): 0.4524
- Emax (MDAMB453 cell line): 21.95
- AUC (MDAMB468, breast, NS, 168 hours): 0.6972
- AUC (MESSA cell line): 0.4933
- Emax (MESSA cell line): 24.22
- AUC (MEWO, skin, NS, 168 hours): 0.7237
- AUC (MIAPACA2 cell line): 0.3322
- Emax (MIAPACA2 cell line): 9.711
- AUC (MKN1 cell line): 0.3945
- AUC (MKN45 cell line): 0.4427
- Emax (MKN45 cell line): 19.77
- AUC (MOLT4 cell line): 0.1376
- Emax (MOLT4 cell line): 0.6048
- AUC (MPP89 cell line): 0.6384
- IC50 (MPP89 cell line): > 10000 nM
- AUC (MV411 cell line): 0.2163
- AUC (NAMALWA cell line): 0.2431
- EC50 (NAMALWA cell line): 3.27 nM
- IC50 (NAMALWA cell line): 3.21 nM
- IC50 (NCI-H1435, 168 h, NCIH1435, lung, non-small cell carcinoma, 168 hours): > 10000 nM
- EC50 (NCI-H2023, NCIH2023 cell line): 2.84 nM
- IC50 (NCI-H2023, NCIH2023 cell line): 3.03 nM
- EC50 (NCI-H2172, NCIH2172 cell line): ≥ 10000 nM
- IC50 (NCI-H2172, NCIH2172 cell line): 133 nM
